molecular target: T1, human NK3 (Homo sapiens, UniProt P29371); assay: FLIPR calcium assay in antagonist mode (NKB EC70 challenge); format: cell-based; conditions: stable cell line expressing human recombinant NK3; antagonist mode vs EC70 of NKB agonist
T1 sequence (P29371 1-465): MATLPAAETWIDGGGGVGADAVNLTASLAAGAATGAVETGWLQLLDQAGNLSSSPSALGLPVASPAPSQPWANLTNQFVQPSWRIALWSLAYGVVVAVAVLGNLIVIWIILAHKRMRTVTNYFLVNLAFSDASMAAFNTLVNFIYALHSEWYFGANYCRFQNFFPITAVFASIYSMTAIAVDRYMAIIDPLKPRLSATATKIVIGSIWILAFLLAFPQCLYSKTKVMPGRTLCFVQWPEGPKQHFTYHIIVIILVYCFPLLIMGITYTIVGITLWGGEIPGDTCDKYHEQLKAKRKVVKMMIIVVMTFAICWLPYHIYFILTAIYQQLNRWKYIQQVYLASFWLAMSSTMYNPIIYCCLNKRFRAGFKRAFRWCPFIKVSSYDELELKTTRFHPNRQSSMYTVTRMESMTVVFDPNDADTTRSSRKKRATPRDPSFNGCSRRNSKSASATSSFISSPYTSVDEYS
Protocol: Stable Cell Lines: A human recombinant NK3 Tachykinin Receptor stable cell line was purchased from GenScript (Genscript, Cat. #M00201; GenBank Accession Number NM 001059). The cell line was cultured according to manufacturer instructions, using 100 μg/mL Hygromycin B (Invitrogen, Cat. #D2650) for selective pressure. Cells were then collected using 0.05% Trypsin-EDTA (GIBCO, Cat. #25300) and frozen in a freezing media containing 90% FBS (Gibco, Cat. #10099-141) and 10% DMSO (Sigma, Cat. #D2650) at a density of 30×10^6 cells/mL. This bank of assay-ready frozen cells was later used in FLIPR assays to evaluate the potency and efficacy of NK3 antagonist test compounds.
FLIPR Calcium Assay: The FLIPR assay, used to measure changes in intracellular calcium levels, was performed in a 384-well plate format using the FLIPR Calcium 6 assay kit (Molecular Devices, Cat. #R8190). Assay-ready frozen cells expressing human NK3 (Genscript, Cat. #M00201) were thawed, washed, trypsinized, counted using a ViCell, and plated in cell growth media without Hygromycin at a density of […] (40 μL/well).
Calculation of NKB EC70: An EC70 concentration of NKB needed to be determined for competition against test antagonists prior to the compound screen. NKB agonist (Phoenix Pharmaceuticals, Cat. #046-26) was diluted in DMSO at 1800 nM (6-fold the final concentration) and serially diluted to generate a 13-point dose response curve (3-fold serial dilution) using an ECHO. 20 μL of 1× stimulation buffer was added using the BRAVO. 10 μL of DMSO was added while on the FLIPR (described as the first addition), then the RFU signal was measured for 10 minutes. The NKB titration was added to the plate, then the RFU signal was measured for 10 minutes (described as the second addition) on the FLIPR. The EC70 concentration was determined by using a four-parameter fit on GraphPad Prism prior to performing the compound screen.
FLIPR Screen in Antagonist Mode: Test compounds were prepared at 60 μM (6-fold the final concentration) and spotted in 370 nL using the Janus and ECHO. 20 μL of assay buffer was added using the BRAVO. Calcium-sensitive dye was reconstituted in loading buffer (Molecular Devices, Cat. #R8190). Media was removed from the cell plate using a Bluecat Cell Washer, and 40 μL of dye was added to the cell plate using the Apricot. The plate was incubated for 2 hours at 37° C., 5% CO2, then transferred to the FLIPR instrument. 10 μL of compound was added on the FLIPR (described as the first addition), then the RFU signal was measured for 10 minutes. EC70 of NKB agonist was added to the entire plate (described as the second addition), and the RFU signal was measured for 10 minutes on the FLIPR. RFU (relative fluorescence units) signals for first baseline, first peak, second baseline, and second peak were measured using the FLIPR. RFU signal (second peak minus second baseline) for positive (Max, at 10 μM antagonist) and negative (Min, at 0 μM antagonist) controls were used to normalize data and generate values for % Activity. IC50 and efficacy values were determined using a standard curve fitting equation on Dotmatics.

| Structure (SMILES) | IC50 |
| --- | --- |
| Cc1nn(C)cc1-c1ccccc1-c1nc2cc(C(=O)N3CC[C@@H](N4CCNCC4)C3)ccn2c1C (single isomer, unassigned) [Compound 480] | 20.7 nM |
| Cc1nn(C)cc1-c1ccccc1-c1nc2cc(C(=O)N3CC[C@H](N4CCNCC4)C3)ccn2c1C (single isomer, unassigned) [Compound 481] | 16.1 nM |
| Cc1c(-c2ccccc2-c2nc3cc(C(=O)N[C@@H]4CO[C@H]5[C@@H]4OC[C@H]5O)ccn3c2Cl)cnn1C [Compound 142] | 6.6 nM |
| Cc1nn(C)cc1-c1ccccc1-c1nc2cc(C(=O)NC3CCNCC3)ccn2c1C [Compound 264] | 10.7 nM |
| Cc1nn(C)cc1-c1ccccc1-c1nc2cc(C(=O)N3CCNCC3)ccn2c1C [Compound 271] | 20.3 nM |
| Cc1c(-c2ccccc2-c2nc3cc(C(=O)N[C@H]4C[C@@](C)(C(=O)O)C4)ccn3c2C)cnn1C [Compound 295] | 131 nM |
| Cc1nn(C)cc1-c1ccccc1-c1nc2cc(C(=O)N[C@H]3C[C@@](C)(C(=O)O)C3)ccn2c1C [Compound 298] | 26.8 nM |
| Cc1c(-c2ccccc2-c2nc3cc(C(=O)N[C@H]4C[C@](C)(C(=O)O)C4)ccn3c2C)cnn1C [Compound 312] | 41.7 nM |
| Cc1nn(C)cc1-c1ccccc1-c1nc2cc(C(=O)N[C@H]3C[C@](C)(C(=O)O)C3)ccn2c1C [Compound 317] | 7.03 nM |
| Cc1nn(C)cc1-c1ccccc1-c1nc2cc(C(=O)N[C@@H]3CO[C@H]4[C@@H]3OC[C@H]4O)ccn2c1C [Compound 425] | 3.16 nM |
| Cc1nn(C)cc1-c1ccccc1-c1nc2cc(C(=O)NC34CC(O)(C3)C4)ccn2c1Cl [Compound 430] | 2.3 nM |
| Cc1nn(C)cc1-c1ccccc1-c1nc2cc(C(=O)N[C@@H]3CO[C@H]4[C@@H]3OC[C@H]4O)ccn2c1C#N [Compound 431] | 4.03 nM |
| Cc1nn(C)cc1-c1ccccc1-c1nc2cc(C(=O)N3C[C@@H]4C[C@H]3C(=O)N4)ccn2c1Cl [Compound 434] | 1.47 nM |
| Cc1nn(C)cc1-c1ccccc1-c1nc2cc(C(=O)O)ccn2c1Cl [Compound 436] | 67.5 nM |
| Cc1nn(C)cc1-c1ccccc1-c1nc2cc(C(=O)N3C[C@H](N)[C@@H](O)C3)ccn2c1Cl [Compound 442] | 15.1 nM |
| Cc1nn(C)cc1-c1ccccc1-c1nc2cc(C(=O)N3CCN(C4CCNC4)CC3)ccn2c1Cl (centres unmarked) [Compound 443] | 11.3 nM |
| Cc1nn(C)cc1-c1ccccc1-c1nc2cc(C(=O)N[C@H]3C[C@](C)(O)C3)ccn2c1Cl [Compound 447] | 3.19 nM |
| Cc1nn(C)cc1-c1ccccc1-c1nc2cc(C(=O)NCC(C)(C)O)ccn2c1Cl [Compound 448] | 6.01 nM |
| CC(=O)NCCNC(=O)c1ccn2c(Cl)c(-c3ccccc3-c3cn(C)nc3C)nc2c1 [Compound 451] | 7.13 nM |
| Cc1nn(C)cc1-c1ccccc1-c1nc2cc(C(=O)N3CCc4c[nH]nc4C3)ccn2c1Cl [Compound 452] | 2.79 nM |
| Cc1nn(C)cc1-c1ccccc1-c1nc2cc(C(=O)NC[C@@H]3CNCCO3)ccn2c1Cl [Compound 455] | 1.74 nM |
| Cc1nn(C)cc1-c1ccccc1-c1nc2cc(C(=O)NCCC(C)(C)O)ccn2c1Cl [Compound 459] | 1.86 nM |
| Cc1nn(C)cc1-c1ccccc1-c1nc2cc(C(=O)N[C@H]3C[C@@](C)(O)C3)ccn2c1Cl [Compound 460] | 2.55 nM |
| Cc1nn(C)cc1-c1ccccc1-c1nc2cc(C(=O)NC[C@H]3CNCCO3)ccn2c1Cl [Compound 461] | 3.41 nM |
| Cc1nn(C)cc1-c1cccc(F)c1-c1nc2cc(C(=O)N[C@@H]3CO[C@H]4[C@@H]3OC[C@H]4O)ccn2c1C#N [Compound 464] | 2.9 nM |

| Structure (SMILES) | IC50 |
| --- | --- |
| Cc1nn(C)cc1-c1cccc(F)c1-c1nc2cc(C(=O)N3C[C@@H]4C[C@H]3C(=O)N4)ccn2c1C#N [Compound 468] | 4.27 nM |
| Cc1nn(C)cc1-c1cccc(F)c1-c1nc2cc(C(=O)N[C@@H]3CO[C@H]4[C@@H]3OC[C@H]4O)ccn2c1Cl [Compound 470] | 1.41 nM |
| Cc1nn(C)cc1-c1ccccc1-c1nc2cc(C(=O)N[C@@H]3CO[C@H]4[C@@H]3OC[C@@H]4O)ccn2c1Cl [Compound 473] | 2.26 nM |
| Cc1n[nH]cc1-c1ccccc1-c1nc2cc(C(=O)N[C@@H]3CO[C@H]4[C@@H]3OC[C@H]4O)ccn2c1Cl [Compound 475] | 5.74 nM |
| CCn1cc(-c2ccccc2-c2nc3cc(C(=O)N[C@@H]4CO[C@H]5[C@@H]4OC[C@H]5O)ccn3c2Cl)c(C)n1 [Compound 476] | 3.31 nM |
| CCn1ncc(-c2ccccc2-c2nc3cc(C(=O)N[C@@H]4CO[C@H]5[C@@H]4OC[C@H]5O)ccn3c2Cl)c1C [Compound 477] | 2.19 nM |
| Cc1nn(C)cc1-c1ccccc1-c1nc2cc(C(=O)N3CCc4n[nH]nc4C3)ccn2c1Cl [Compound 486] | 6.85 nM |
| Cc1nn(C)cc1-c1cccc(F)c1-c1nc2cc(C(=O)N3C[C@@H]4C[C@H]3C(=O)N4)ccn2c1Cl [Compound 487] | 2.21 nM |
| Cc1nn(C)cc1-c1ccccc1-c1nc2cc(C(=O)NC[C@@H](C)N3CCNC3=O)ccn2c1Cl [Compound 490] | 3.4 nM |
| Cc1nn(C)cc1-c1ccccc1-c1nc2cc(C(=O)NCCS(N)(=O)=O)ccn2c1Cl [Compound 614] | 2.65 nM |
| Cc1nn(C)cc1-c1ccccc1-c1nc2cc(C(=O)NC34COC(CO)(C3)C4)ccn2c1Cl [Compound 615] | 2.5 nM |
| Cc1nn(C)cc1-c1ccccc1-c1nc2cc(C(=O)NCC34CC(CO)(CO3)C4)ccn2c1Cl [Compound 616] | 1.45 nM |
| Cc1nn(C)cc1-c1ccccc1-c1nc2cc(C(=O)N[C@H]3CO[C@H]4[C@@H]3OC[C@@H]4N)ccn2c1Cl [Compound 617] | 3.18 nM |
| Cc1nn(C)cc1-c1ccccc1-c1nc2cc(C(=O)N[C@@H]3C[C@H]3CO)ccn2c1Cl [Compound 619] | 1.24 nM |
| Cc1nn(C)cc1-c1ccccc1-c1nc2cc(C(=O)NCC34CC(CO)(CCO3)C4)ccn2c1Cl [Compound 624] | 0.59 nM |
| Cc1nn(C)cc1-c1ccccc1-c1nc2cc(C(=O)NC[C@H]3C[C@](C)(O)C3)ccn2c1Cl [Compound 629] | 1.06 nM |
| Cc1nn(C)cc1-c1ccccc1-c1nc2cc(C(=O)NC[C@H]3C[C@@](C)(O)C3)ccn2c1Cl [Compound 631] | 0.78 nM |
| Cc1nn(C)cc1-c1ccccc1-c1nc2cc(C(=O)NC[C@]34C[C@](O)(C3)C4)ccn2c1Cl [Compound 633] | 1.53 nM |
| Cc1nn(C)cc1-c1ccccc1-c1nc2cc(C(=O)NC[C@]34C[C@](CO)(C3)C4)ccn2c1Cl [Compound 635] | 1.65 nM |
| Cc1nn(C)cc1-c1ccccc1-c1nc2cc(C(=O)N3CC(=O)N[C@@H](CO)C3)ccn2c1Cl [Compound 638] | 25.8 nM |
| Cc1nn(C)cc1-c1ccccc1-c1nc2cc(C(=O)N3CC(=O)N[C@H](CO)C3)ccn2c1Cl [Compound 639] | 3.81 nM |
| Cc1nn(C)cc1-c1ccccc1-c1nc2cc(C(=O)N[C@H]3C[C@H](CO)C3)ccn2c1Cl [Compound 641] | 1.04 nM |
| Cc1nn(C)cc1-c1ccccc1-c1nc2cc(C(=O)N[C@H]3C[C@@H](CO)C3)ccn2c1Cl [Compound 643] | 1.08 nM |
| Cc1nn(C)cc1-c1ccccc1-c1nc2cc(C(=O)NC[C@H]3C[C@@H](O)C3(C)C)ccn2c1Cl [Compound 645] | 2.02 nM |
| Cc1nn(C)cc1-c1ccccc1-c1nc2cc(C(=O)N3C[C@@H]4[C@@H](O)[C@@H]4C3)ccn2c1Cl [Compound 647] | 9.16 nM |

Reference: patent publication US12281114B2, “NK3 modulators and uses thereof” (Kallyope, Inc., priority 2023, dated 2025)
